Assay results taken from patent US20100247658A1, “ORGANIC COMPOUNDS” (priority 2007, published 2010).

What was measured:
[1] = prior to micronisation
[2] = micronised, heated for 5 hours at 70° C. in a thermal oven; cited from earlier work

Compound | dispersive surface energy [1] | recrystallisation of amorphous parts / stable product [2]
C[N+]1(C)CCC(OC(=O)C(O)(c2ccccc2)C2CCCC2)C1.[Br-] (centres unmarked) [glycopyrrolate, 3-[(cyclopentyl-hydroxyphenylacetyl)oxy]-1,1-dimethyl-pyrrolidinium bromide] | 48 mJ/m^2 | 
salbutamol sulfate |  | failed to lead to recrystallisation
